{"source": "patent US11434205B2", "about": "“Substituted imidazole carboxylate derivatives and the use thereof” (priority 2018, dated 2022)", "key": {"rats [1]": {"test_system": "rats", "test": "Pharmacological characteristics at equivalent doses (2×ED50) in rats", "conditions": "2×ED50, tail vein; for Adverse reactions: Red urine (incidence): DMSO solution (DMSO alone 10/10); for Onset time: time of LORR", "method": "Comparison of Pharmacological Characteristics of the Compounds at Equivalent Doses (2×ED50) in Rats\nAdult male Sprague-Dawley rats (250-300 g) were selected for the experiment (n=8). […] The drugs were administered at a dose twice their ED50 through the tail vein of rats in a volume of 0.6 mL and at a rate of 0.1 mL/s. In addition, the time of LORR was recorded as the onset time of anesthesia. […] Furthermore, the duration of the pharmacological effects is sufficient to meet the time requirements for rapid induction of general anesthesia and for diagnostic examinations, some short invasive clinical examinations, or operations."}, "rats [2]": {"test_system": "rats", "test": "Loss of righting reflexes (LORR) assay in rats, ED50 by up and down method", "format": "in vivo, rat", "conditions": "tail vein, class symbols; for ED50: Rattus norvegicus", "method": "The Anesthetic Activity of the Compounds was Assessed in Rats Using a Loss of Righting Reflexes (LORR) Assay\n(§1) Adult male Sprague-Dawley rats (250-300 g) were selected for the experiment. […] The anesthesia effects of the compounds were assessed in rats using a LORR assay and a period >30 s was considered as an indicator of general anesthesia. Then the up and down method was used to determine 50% effective dose (ED50). The drugs were administered through the tail vein of rats in a volume of 0.6 mL and at a rate of 0.1 mL/s."}, "rats [3]": {"test_system": "rats", "method": "as §1"}}}
{"smiles": "CC#CC(C)(C)OC(=O)c1cncn1[C@H](C)c1ccccc1", "note": "[Compound D31]", "values": [{"measurement": "Righting reflex duration", "setting": "rats [1]", "value": "2.65 ± 1.10", "unit": "min"}, {"measurement": "Adverse reactions: Red urine (incidence)", "setting": "rats [1]", "value": "Red urine (8/8)"}, {"measurement": "Onset time", "setting": "rats [1]", "value": "0.41 ± 0.15", "unit": "min"}, {"measurement": "ED50", "setting": "rats [2]", "value": "0.5 to 1", "unit": "mg/kg"}, {"measurement": "Approximate therapeutic index", "setting": "rats [3]", "value": ">13"}, {"measurement": "Minimal lethal dose", "setting": "rats [3]", "value": ">9", "unit": "mg/kg"}]}
{"smiles": "CC#CC(C)OC(=O)c1cncn1[C@H](C)c1ccccc1", "note": "(some centres unmarked) [Compound D32]", "values": [{"measurement": "Adverse reactions: Tongue stretching (incidence)", "setting": "rats [1]", "value": "Tongue stretching (2/8),"}, {"measurement": "Righting reflex duration", "setting": "rats [1]", "value": "2.14 ± 1.23", "unit": "min"}, {"measurement": "Adverse reactions: Red urine (incidence)", "setting": "rats [1]", "value": "Red urine (8/8)"}, {"measurement": "Onset time", "setting": "rats [1]", "value": "0.49 ± 0.23", "unit": "min"}, {"measurement": "ED50", "setting": "rats [2]", "value": "0.1 to 0.5", "unit": "mg/kg"}, {"measurement": "Approximate therapeutic index", "setting": "rats [3]", "value": ">16"}, {"measurement": "Minimal lethal dose", "setting": "rats [3]", "value": ">5", "unit": "mg/kg"}]}
{"smiles": "C=C=CC1(SC(=O)c2cncn2[C@H](C)c2ccccc2)COC1", "note": "[Compound D33]", "values": [{"measurement": "Righting reflex duration", "setting": "rats [1]", "value": "0.92 ± 0.33", "unit": "min"}, {"measurement": "Adverse reactions: Red urine (incidence)", "setting": "rats [1]", "value": "Red urine (8/8)"}, {"measurement": "Onset time", "setting": "rats [1]", "value": "0.71 ± 0.22", "unit": "min"}, {"measurement": "ED50", "setting": "rats [2]", "value": "0.5 to 1", "unit": "mg/kg"}, {"measurement": "Approximate therapeutic index", "setting": "rats [3]", "value": ">10"}, {"measurement": "Minimal lethal dose", "setting": "rats [3]", "value": ">8", "unit": "mg/kg"}]}
{"smiles": "C=CC#CC(C)OC(=O)c1cncn1[C@H](C)c1ccccc1", "note": "(some centres unmarked) [Compound D59]", "values": [{"measurement": "Righting reflex duration", "setting": "rats [1]", "value": "5.83 ± 1.06", "unit": "min"}, {"measurement": "Adverse reactions: Red urine (incidence)", "setting": "rats [1]", "value": "Red urine (8/8)"}, {"measurement": "Onset time", "setting": "rats [1]", "value": "0.15 ± 0.02", "unit": "min"}, {"measurement": "ED50", "setting": "rats [2]", "value": "0.1 to 0.5", "unit": "mg/kg"}, {"measurement": "Approximate therapeutic index", "setting": "rats [3]", "value": ">11"}, {"measurement": "Minimal lethal dose", "setting": "rats [3]", "value": ">13", "unit": "mg/kg"}]}
{"smiles": "C#CC1(OC(=O)c2c(F)ncn2[C@H](C)c2ccccc2)COC1", "note": "[Compound E4]", "values": [{"measurement": "Righting reflex duration", "setting": "rats [1]", "value": "4.38 ± 1.29", "unit": "min"}, {"measurement": "Sedation duration (mg/kg)", "setting": "rats [1]", "value": "10.65 ± 1.31"}, {"measurement": "Adverse reactions: Red urine (incidence)", "setting": "rats [1]", "value": "(8/8)"}, {"measurement": "Onset time", "setting": "rats [1]", "value": "0.45 ± 0.05", "unit": "min"}, {"measurement": "ED50 (mg/kg)", "setting": "rats [2]", "value": "B (B means that the measured ED50 is in the range of 0.10-0.50 mg/kg (excluding 0.10 mg/kg, including 0.50 mg/kg).)"}, {"measurement": "Approximate therapeutic index", "setting": "rats [3]", "value": ">20"}, {"measurement": "Minimal lethal dose", "setting": "rats [3]", "value": ">10", "unit": "mg/kg"}]}
{"smiles": "C[C@H](c1ccccc1)n1cnc(F)c1C(=O)OC1CC1", "note": "[Compound E34]", "values": [{"measurement": "Adverse reactions: Tongue stretching (incidence)", "setting": "rats [1]", "value": "(1/8),"}, {"measurement": "Righting reflex duration", "setting": "rats [1]", "value": "1.78 ± 1.09", "unit": "min"}, {"measurement": "Adverse reactions: Red urine (incidence)", "setting": "rats [1]", "value": "(8/8)"}, {"measurement": "Onset time", "setting": "rats [1]", "value": "0.29 ± 0.20", "unit": "min"}, {"measurement": "ED50", "setting": "rats [2]", "value": "0.1 to 0.5", "unit": "mg/kg"}, {"measurement": "Approximate therapeutic index", "setting": "rats [3]", "value": ">12"}, {"measurement": "Minimal lethal dose", "setting": "rats [3]", "value": ">2", "unit": "mg/kg"}]}
{"smiles": "C=C=CC1(OC(=O)c2c(F)ncn2[C@H](C)c2ccccc2)CCCCC1", "note": "[Compound E36]", "values": [{"measurement": "Righting reflex duration", "setting": "rats [1]", "value": "2.21 ± 1.86", "unit": "min"}, {"measurement": "Adverse reactions: Red urine (incidence)", "setting": "rats [1]", "value": "(8/8)"}, {"measurement": "Onset time", "setting": "rats [1]", "value": "0.49 ± 0.17", "unit": "min"}, {"measurement": "ED50", "setting": "rats [2]", "value": "0.5 to 1", "unit": "mg/kg"}, {"measurement": "Approximate therapeutic index", "setting": "rats [3]", "value": ">26"}, {"measurement": "Minimal lethal dose", "setting": "rats [3]", "value": ">5", "unit": "mg/kg"}]}
{"smiles": "C=C=CC(CC)OC(=O)c1c(F)ncn1[C@H](C)c1ccccc1", "note": "(some centres unmarked) [Compound E77]", "values": [{"measurement": "Righting reflex duration", "setting": "rats [1]", "value": "1.90 ± 0.74", "unit": "min"}, {"measurement": "Adverse reactions: Red urine (incidence)", "setting": "rats [1]", "value": "urine (8/8)"}, {"measurement": "Adverse reactions: Tremor (incidence)", "setting": "rats [1]; animals affected/animals", "value": "(2/8), Red"}, {"measurement": "Onset time", "setting": "rats [1]", "value": "0.11 ± 0.03", "unit": "min"}, {"measurement": "ED50", "setting": "rats [2]", "value": "0.5 to 1", "unit": "mg/kg"}, {"measurement": "Approximate therapeutic index", "setting": "rats [3]", "value": ">12"}, {"measurement": "Minimal lethal dose", "setting": "rats [3]", "value": ">10", "unit": "mg/kg"}]}
{"smiles": "CC#CC1(OC(=O)c2c(F)ncn2[C@H](C)c2ccccc2)CSC1", "note": "[Compound E91]", "values": [{"measurement": "Righting reflex duration", "setting": "rats [1]", "value": "1.24 ± 0.63", "unit": "min"}, {"measurement": "Adverse reactions: Red urine (incidence)", "setting": "rats [1]", "value": "(8/8)"}, {"measurement": "Onset time", "setting": "rats [1]", "value": "0.48 ± 0.21", "unit": "min"}, {"measurement": "ED50", "setting": "rats [2]", "value": "0.5 to 1", "unit": "mg/kg"}, {"measurement": "Approximate therapeutic index", "setting": "rats [3]", "value": ">6"}, {"measurement": "Minimal lethal dose", "setting": "rats [3]", "value": ">20", "unit": "mg/kg"}]}
{"smiles": "C[C@H](c1ccccc1)n1c(Cl)nc(Cl)c1C(=O)OC1COC1", "note": "[Compound E132]", "values": [{"measurement": "Adverse reactions: Restlessness (incidence)", "setting": "rats [1]", "value": "(2/8), Red"}, {"measurement": "Righting reflex duration", "setting": "rats [1]", "value": "2.70 ± 1.15", "unit": "min"}, {"measurement": "Adverse reactions: Red urine (incidence)", "setting": "rats [1]", "value": "urine (8/8)"}, {"measurement": "Onset time", "setting": "rats [1]", "value": "0.18 ± 0.06", "unit": "min"}, {"measurement": "ED50", "setting": "rats [2]", "value": "0.5 to 1", "unit": "mg/kg"}, {"measurement": "Approximate therapeutic index", "setting": "rats [3]", "value": ">14"}, {"measurement": "Minimal lethal dose", "setting": "rats [3]", "value": ">10", "unit": "mg/kg"}]}
